The source of these data is patent publication US9073858B2, “Methods of targeted drug development” (priority 2010, dated 2015).

In one data set the test system is A549 cells. The data set is described as follows: A549 Cell Proliferation Assay (MTT). The class given is cell-based. The following applies: Homo sapiens.
The next data set deals with H1975 cells. The data set is described as follows: H1975 Cell Proliferation Assay (MTT). The class given is cell-based. The following applies: Homo sapiens.
Data set [1] has as its system DNA fragmentation in A549 cells. The data set is described as follows: DNA Fragmentation Assay (Cell Death Detection ELISA). The data set is classed as cell-based. Particulars: for Emax at 1 µM / Emax at 10 µM: A549, read-out: % Increase Relative to Staurosporin. A general note: An ELISA detects its analyte on a solid surface through an enzyme-linked reagent.
The next data set deals with annexin V in A549 cells. Particulars: for % Total Apoptosis: cells in early- and late-stage apoptosis; for % Relative to Reference Cpd.: reference 4.0 μM camptothecin or 1.0 μM staurosporin. The text has this: Assays that measure apoptosis are utilized to determine whether or not compounds can induce programmed cell death in cancer cells. Annexin V is a protein that is used to detect apoptosis by binding to phosphatidylserine expressed on membranes of dead or dying cells. Fluorescently tagged with FITC, it can he used in conjunction with 7-aminoactinomycin D to determine the percentage of cells undergoing apoptosis via flow cytometry. Cells in early apoptosis will emit an FITC signal which will eventually be replaced by the far red 7-AAD signal that is associated with cell membrane permeability due to necrosis.
In brief, for the Annexin V Assay, compounds were added to cells plated in 6-well plates. Treated cells were incubated for up to 30 hours before addition of fluorescent cell marker probes that detect the presence of annexin V. The percentage of cells undergoing apoptosis and necrosis were determined by flow cytometry.
On day 2, working solutions of compounds (at 1000×) were prepared. To 2.0 ml media/well was added 2 μl 1000× compound diluted in 100% DMSO for final DMSO concentration of 0.1%. On day 3, plates were incubated for 30 hrs. […] Cells were collected by centrifugation at 300×g for 5 min.
Resuspended cells were stored at 4° C. in the dark, until flow cytometry analysis.
For flow cytometry analysis of the Annexin V Assay, sample acquisition was on the BD LSR II manufactured by BD Biosciences, San Jose, Calif. […] 10,000 events werer collected based on a stopping gate of forward scatter vs side scatter light. Acquisition was done through BD FACS DiVa software version 6.1.1 on high flow rate (60 μL/min). Calculations were as follows: Quadrant 3=lower left=live cells; Quadrant 4=lower right=early apoptosis; Quadrant 2=upper right=late apoptosis; Quadrant 1=upper left=dead cells. Percent (%)Total apoptosis was calculated as early (quadrant 4)+late (quadrant 2). Percent (%) ratio apoptosis was calculated as (experimental-No treatment/positive control)*100. All statistical analyses are done using GraphPad Prism or Microsoft Excel.

Data set [2] in a line: Stability on incubation with mouse liver microsomes (MLM). Particulars: percentage left after incubation with mouse liver microsomes for 30 minutes. The data set is classed as in vitro ADME. The procedure, abridged: (§1)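 Values are percent compound remaining after 30 min incubation with mouse or human liver microsomes.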
A general note: Liver microsomes are a subcellular fraction often used to study metabolism.

Data set [3] in a line: Stability on incubation with human liver microsomes (HLM). The class given is in vitro ADME. The following applies: percentage left after incubation with human liver microsomes for 30 minutes. In outline: as §1
[4] abbreviates: A549, 72 h, read-out: IC50 Value (μM) A549 Cells.
Where [5] appears, read: NCI-H1975, 72 h, read-out: IC50 Value (μM) H1975 Cells.
Setting [6] is: Homo sapiens, A549, 24 h, read-out: % Increase over Background.

Like-named read-outs stand apart in the source and are kept apart here. Some results are limits rather than exact numbers.

Turning to `Cc1cc(Cl)cnc1NC(c1ccc(Cl)cc1Cl)c1ccc2cccnc2c1O` (stereo not shown) [AD4-13130], the IC50 was 0.12 µM with A549 cells (setting [4]); ≤ 0.1 µM with A549 cells (A549, read-out: IC50, cell proliferation in A549 or H1975 cells); 0.088 µM in the data set on H1975 cells (setting [5]). Further, in data set [1] (Caspase, DNA Fragmentation, Annexin-V), the apoptotic activity result is “increased apoptotic activity”. For the same compound, the activation at 1 µM in data set [1] (setting [6]) came out at 630%. For the same compound, the activation at 10 µM in data set [1] (setting [6]) was 684%. Further, the Emax at 1 µM in data set [1] (Homo sapiens) turned out to be 62%. Further, the Emax at 10 µM in data set [1] (Homo sapiens) was determined as 69%. The “apoptosis, share of the cell population” value in the data set on annexin V in A549 cells (1 μM, A549 cells, FIG. 16B) was “greater than 50%”. For the same compound, the “% Total Apoptosis” value with annexin V in A549 cells (1 μM, A549 cells) turned out to be 32%; in the data set with annexin V in A549 cells (10 μM, A549 cells), 38%. Further, the “% Relative to Reference Cpd.” value with annexin V in A549 cells (1 μM) was 178%; with annexin V in A549 cells (10 μM), 166%. Also, in the data set with annexin V in A549 cells (10 μM, A549 cells, FIG. 16B), the “late apoptosis, share of the cell population” value is “up to 20%”. For the same compound, the “MLM % Remaining@ 30 Min” value in data set [2] stood at 69%. For the same compound, the “HLM % Remaining@ 30 Min” value in data set [3] worked out at 89%.
As for `Cc1c(Cl)cnc(NC(c2cccc(Cl)c2Cl)c2ccc3cccnc3c2O)c1F` (stereo not shown) [AD4-13192], the IC50 was 0.15 µM in the data set with A549 cells (setting [4]) and 0.19 µM in the data set on H1975 cells (setting [5]). Besides, in data set [1] (setting [6]), the activation at 10 µM came to 561%. In data set [1] (Homo sapiens), the Emax at 1 µM was 11%. Also, the Emax at 10 µM in data set [1] (Homo sapiens) came out at 55%. Further, the “% Total Apoptosis” value with annexin V in A549 cells (1 μM, A549 cells) stood at 29%; in the data set on annexin V in A549 cells (10 μM, A549 cells), 30%. Moreover, the “MLM % Remaining@ 30 Min” value in data set [2] is 63%. Besides, the “HLM % Remaining@ 30 Min” value in data set [3] was found to be 100%.
For the compound `Oc1c(C(Nc2ccccn2)c2ccc(C(F)(F)F)cc2)ccc2cccnc12` (stereo not shown) [compound 10460], the IC50 with H1975 cells (NCI-H1975, H1975 cells, 72 hours post compound treatment, read-out: IC50 (best fit value from FIG. 10)) was 0.304 µM; in the data set on H1975 cells (NCI-H1975, H1975 cells, 72 hours post compound treatment, read-out: Log IC50 (best fit value from FIG. 10) (converted)), 0.304 µM; in the data set on H1975 cells (NCI-H1975, MTT, 72 hours, read-out: IC50 Value (μM) H1975 Cells), 0.3 µM.
